Laboratory results as given in patent US20220186063A1, “BEVERAGE STRAW COATED WITH AN ACTIVE COMPOUND AND METHOD OF MANUFACTURING” (priority 2020, published 2022).

Assay: Release of THC from straw coating as water is drawn through the straw (Example 5)
Assay type: physicochemical
Settings: after 220 ml of water passes through the straw over 30 minutes; composite of six straws
Procedure: A study was performed to determine how long it takes for […] to be released from the coating as a liquid is drawn through the coated straw, and to determine how much liquid is required to achieve the full dose of the active ingredient.
The volume of dispersion required to achieve a 10 mg dose of THC was calculated. A pipette was calibrated to ensure that it dispenses the correct amount of dispersion to achieve the desired dose, and then it was loaded with the appropriate amount of the dispersion.
The calculated amount of dispersion was injected using the pipette into PFTA sugarcane straws. The dispersion was allowed to gradually coat the inside of each straw by arranging them vertically. Care was taken to not allow the dispersion to come out of the bottom of the straws.
Straws were dried by taping them horizontally to a tray using food-grade mylar and placing the tray into a convection oven at 55° C. for approximately 60 minutes or until dispersion was visibly dry. Straws were checked every 30 minutes. Once the straws were dry, they were removed from the oven and allowed to cool.
For each straw, a syringe was affixed to the end of a prepared coated straw. The opposing end of the straw was placed in a beaker of deionized water. […]

For `CCCCCc1cc(O)c2c(c1)OC(C)(C)[C@@H]1CCC(C)=C[C@@H]21` [THC, (6aR,10aR)-6,6,9-trimethyl-3-pentyl-6a,7,8,10a-tetrahydro-6H-benzo[c]chromen-1-ol], the “THC released from the coating” value was “approximately 60%”.
